Here are results for two molecules from PMC7824769, “Identification of Small Molecules Blocking the Pseudomonas aeruginosa Type III Secretion System Protein PcrV” (Biomolecules, 2021).

Some results are limits rather than exact numbers.

For one data set, the target named is PcrV (Pseudomonas aeruginosa, UniProt G3XD49). The data set is described as follows: SPR dose-response binding to immobilized PcrV (equilibrium analysis). Particulars: for Binding to PcrV in SPR (in words): dose-response SPR. How it is done:
The SPR screening was performed using the ProteOn^TM XPR36 Protein Interaction Array System (Bio-Rad Laboratories Inc., Hercules, CA, USA) with ProteOn GLH sensor chip (Bio-Rad Laboratories Inc., Hercules, CA, USA), and the results were analyzed with the ProteOn Manager software^TM (Bio-Rad Laboratories Inc., Hercules, CA, USA), Excel 2016 (Microsoft Office), and GraphPad Prism 7.04. All SPR experiments were performed at 25 °C. The multichannel module of the ProteOn system was in the vertical position during protein immobilization. The proteins were attached to the surface of a GLH sensor chip via amine coupling chemistry. A buffer scouting was performed to elucidate the optimal binding conditions of PcrV to the GLH sensor chip. First, channels 1–4 on the chip surface were activated using a 1:1 mixture of 40 mM 1-ethyl-3-(3-dimethylaminopropyl)carbodiimide hydrochloride (EDAC) (Bio-Rad Laboratories Inc., Hercules, CA, USA) and 10 mM N-hydroxysulfosuccinimide (sulfo-NHS, Bio-Rad Laboratories Inc., Hercules, CA, USA) for 300 s at 30 µL/min. Next, the proteins PcrV (33,398.6 Da, 6.37 mg/mL) was diluted in 10 mM NaOAc (pH 4, 4.5, and 5) to 0.05 mg/mL. PcrV was immobilized in channel 1–3 for 540 s at 30 µL/min. Channel 4 was flushed with 10 mM NaOAc (pH 5) for 540 s at 30 µL/min. As deactivating agent, a 1:1 mixture of 1 M ethanolamine and milli-Q filtered water was used. The deactivating solution was injected over all four channels for 300 s at 30 µL/min. Phosphate buffered saline with Tween (PBST; 10 mM phosphate buffer pH 7.4, 140 mM NaCl, 2.7 mM KCl, and 0.05% Tween 20) was used as the running buffer. The final amount of immobilized protein was measured in resonance units (RU) relative to the signal of the baseline prior activation. […] Immobilization of PcrV diluted in sodium acetate of pH 4.5 in one channel and of pH 5 in one channel were used in the beginning of the screening procedure (for plate 1–26). Since no difference was found between the two pH values, the PcrV protein was diluted in sodium acetate at pH 5 only (in two channels) from plate 27 and the rest of the screen. The immobilization procedure for the screening was performed as described above with the addition that the control protein carbonic anhydrase isoenzyme II from bovine erythrocytes (CAII, Sigma-Aldrich, article number 2522) was immobilized in one channel that was activated and deactivated as described above. CAII (1 mg/mL in PBS) was deactivated when diluted in 10 mM sodium acetate (pH 4) to 0.05 mg/mL. Immobilization level of the deactivated CAII was 18,000 RU. Deactivated CAII was used as a control protein according to the recommendations by the ProteOn manufacturer (Bio-Rad Laboratories Inc., Hercules, CA, USA). As running buffer, we employed PBS (pH 7.4, 0.05% Tween 20).
First, the PcrV protein was immobilized in two channels as described above while keeping a blank channel which was activated and deactivated as described above. The multichannel module of the ProteOn system was in horizontal position during the small molecule interaction studies. They were serially diluted to (400,) 200, 100, 50, 25, 12.5, 6.25, and (3.125); or 100, 50, 25, and 12.5 µM; or 100, 66.7, 44.4, 29.6, 19.7, and 13.2 µM in PBST (0.05% Tween 20) with a total concentration of 5% DMSO in 96-well plates. The running buffer was PBST (0.05% Tween 20) containing 5% DMSO. The analytes were injected at a flowrate of 100 µL/min, contact time was 60 s, and dissociation time was 60–120 s. Solvent correction was performed continuously during the experiments to account for bulk response of DMSO. The data was then baseline-aligned, processed by channel referencing with the blank channel, and solvent-corrected. The equilibrium dissociation constant (KD) values were determined from equilibrium analysis in the ProteOn Manager software^TM. Solubility problems frequently hampered KD determination since the small molecules could not always be dissolved in concentrations high enough to reach a plateau. […]

The subject of the next data set is uninfected J774 cells. The data set is described as follows: Cell toxicity control: compounds added to uninfected J774 cells. The class given is cell-based. Particulars: 6 h incubation; for Toxicity towards eukaryotic cells, 25 µM: compound 25 µM; for Toxicity towards eukaryotic cells, 50 µM: compound 50 µM; for Toxicity towards eukaryotic cells, 100 µM: compound 100 µM; for Toxicity towards eukaryotic cells, 200 µM: compound 200 µM. The method, then:
(§1) The cell viability assay was performed essentially as described before. J774 cells were seeded in 96-well micro-titer plates (Nunc), 100 µL/well, to a final number of 50,000 cells/well in Dulbecco’s modified Eagle’s medium (DMEM) with glutamax (Merck) supplemented with 10% fetal calf serum (FCS) and 3 µg/mL gentamicin and incubated for 16-18 h. Overnight cultures of the P. aeruginosa strains PAK and PAKpcrV [10] were grown in Luria Broth (LB) on a rotary shaker at 220 rpm at 37 °C. Prior to infection, the bacteria were diluted 1:10 in DMEM + glutamax and incubated for 1 h at 37 °C (shaking). The J774 cells were washed once with PBS, then 30 µL of DMEM with glutamax and 10% FCS supplemented with the potential binders at concentrations of 50, 100, 200, and 400 µM were added to the wells in triplicates. The infection was initiated by adding 30 µL of the diluted bacterial solutions (where the OD600 had been diluted to 0.0008) to each well to initiate infection. This infection results in a final bacterial concentration of OD600 = 0.0004 and a multiplicities of infection (MOI) of approximately 8, with final concentrations of the compounds at 25, 50, 100, and 200 µM in 60 µL of DMEM + glutamax and 5% FCS. In the primary screening, the compounds were run at one concentration (100 µM) in duplicates. As an infection control, the wild-type strain PAK with 1% DMSO was added, and as a positive control, PAKpcrV with 1% DMSO was added into four wells each. After 3 h and 30 min, 10 µL of UptiBlue Viable Cell Counting Kit (Interchime, France) was added to all wells. The infection was followed under the light microscope and the fluorescence (excitation 535 nm and emission 595 nm) was measured at 4, 5, and 6 h in a microplate reader (Synergy™ H4, Biotek). The results were calculated as percentage of living cells compared to uninfected control, where the uninfected control was set to 100% living cells and the infected control was set to 0% living cells. As a control, compounds were added to uninfected cells in a parallel experiment and viability was calculated as above to screen for cell toxicity. A compound was considered toxic if the viability was <80% of the uninfected control after 6 h of incubation and if a visual change of cell morphology was observed by microscopy. Z’ was calculated for each plate to ensure good quality throughout the screening. Only results from plates with a Z’ > 0.4 were counted. Standard deviation was calculated with Gaussian approximation when appropriate and shown as error bars in Figure 3C and Figure 4A.

Test in data set [1]: as above
Particulars: mouse, uninfected J774 macrophage cells; read-out: Eukaryotic cell toxicity (viability compared to DMSO control). The data set is classed as cell-based. How it is done:
as §1

[2] abbreviates: KD ± standard error of KD (Table S1), single experiment, standard error from ProteOn Manager software.
Where [3] appears, read: SPR KD, equilibrium analysis, mean ± SD of three or more independent experiments, individual values where n < 3, 25 °C, PBST 5% DMSO.

PcrV, sequence (G3XD49 entry or part of it): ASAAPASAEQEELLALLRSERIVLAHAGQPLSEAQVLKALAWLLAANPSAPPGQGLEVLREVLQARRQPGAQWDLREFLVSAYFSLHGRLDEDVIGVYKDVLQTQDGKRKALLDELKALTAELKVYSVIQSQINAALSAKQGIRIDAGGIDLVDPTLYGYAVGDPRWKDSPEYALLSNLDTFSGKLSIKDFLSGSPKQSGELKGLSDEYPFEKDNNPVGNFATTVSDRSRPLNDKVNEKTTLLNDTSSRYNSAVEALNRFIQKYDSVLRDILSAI

In the case of `CNC(=O)CCCOc1ccc(Br)c(C)c1C` [Compound 19], the Kd – broadly, the free concentration of one partner at which half of the binding sites on the other are occupied at equilibrium, for simple one-to-one binding – on PcrV (setting [2]) came to 177 ± 31.6 µM. The molecule further had a Kd on PcrV (setting [3]) of 121 ± 45 µM. Moreover, the “Binding to PcrV in SPR (in words)” value at PcrV is reported as “improved or similar binding affinity”. In addition, in the data set on uninfected J774 cells, the “Toxicity towards eukaryotic cells, 25 µM” value is listed as “Toxic ^e (<80% viability compared to the DMSO control)”; the “Toxicity towards eukaryotic cells, 50 µM” value is reported as “Toxic ^e (<80% viability compared to the DMSO control)”; the “Toxicity towards eukaryotic cells, 100 µM” value is listed as “Toxic ^e (<80% viability compared to the DMSO control)”; the “Toxicity towards eukaryotic cells, 200 µM” value is reported as “Toxic ^e (<80% viability compared to the DMSO control)”. The viability – broadly, the share of living cells, or the viability signal relative to a control – at 6 h in data set [1] is under 80%.
In the case of `Cc1c(Br)ccc(OCCCC(N)=O)c1C` [Compound 18], at PcrV (setting [2]), the Kd amounted to 32.9 ± 5 µM. The same molecule had a Kd at PcrV (setting [3]) of 42 ± 12 µM. For the same molecule, the “Binding to PcrV in SPR (in words)” value at PcrV is “improved or similar binding affinity”. In the data set with uninfected J774 cells, the “Toxicity towards eukaryotic cells, 25 µM” value was “Toxic ^e (<80% viability compared to the DMSO control)”; the “Toxicity towards eukaryotic cells, 50 µM” value is on record as “Toxic ^e (<80% viability compared to the DMSO control)”; the “Toxicity towards eukaryotic cells, 100 µM” value is “Toxic ^e (<80% viability compared to the DMSO control)”; the “Toxicity towards eukaryotic cells, 200 µM” value is “Toxic ^e (<80% viability compared to the DMSO control)”. Also, the viability at 6 h in data set [1] was under 80%.
